The record followed here is PubChem BioAssay (NCI).

Among the test systems are MOLT-4 leukemia; SNB-19 CNS; ACHN renal; HOP-92 NSCLC; MALME-3M melanoma; TK-10 renal; MDA-MB-435; NCI-H460 lung; U251 CNS; SW-620 colon.
What all share (test): inhibition of tumour cell growth, NCI panel, 48 h

The structures appear in SMILES notation.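 Each compound was tested at five concentrations against cells in 96-well plates for 48 hours. Abbreviation: GI50, concentration required for 50% inhibition of growth. TGI: concentration producing complete growth inhibition.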

For the compound `COc1cc(CC2CC(c3ccc4c(c3)OCO4)OC2=O)cc(OC)c1OC` (centres undefined), the TGI with MOLT-4 leukemia, in the assay on SNB-19 CNS, in the assay on ACHN renal, in the assay with HOP-92 NSCLC, in the assay with MALME-3M melanoma and in the assay on TK-10 renal was above 100 µM each time. Besides, the TGI with MDA-MB-435, in the assay with NCI-H460 lung, with U251 CNS and with SW-620 colon was above 100 µM each time.
Take `N#C/C(=C\c1cccnc1)c1nc2ccccc2o1`: the GI50 in the assay with MOLT-4 leukemia is above 100 µM; with SNB-19 CNS, above 100 µM; in the assay with ACHN renal, above 100 µM; in the assay with HOP-92 NSCLC, 40.8 µM; in the assay on MALME-3M melanoma it was 21.8 µM; in the assay with TK-10 renal it was above 100 µM. Further, the GI50 in the assay with MDA-MB-435, with NCI-H460 lung, with U251 CNS and in the assay on SW-620 colon was above 100 µM each time. Moreover, the TGI in the assay on MOLT-4 leukemia, in the assay with SNB-19 CNS, in the assay on ACHN renal, in the assay on HOP-92 NSCLC, with MALME-3M melanoma and in the assay with TK-10 renal was above 100 µM each time. For the same compound, the TGI in the assay with MDA-MB-435, in the assay on NCI-H460 lung, in the assay with U251 CNS and with SW-620 colon was above 100 µM throughout.
As for `CN(C)CCNc1c2c(c(NCCN(C)C)c3c(CO)c[nH]c13)C(=O)c1ccccc1C2=O`, the GI50 in the assay on MOLT-4 leukemia was 0.371 µM; in the assay on SNB-19 CNS, 6.09 µM; with ACHN renal, 1.92 µM; in the assay on HOP-92 NSCLC, 2.89 µM; with MALME-3M melanoma it was 2.4 µM; in the assay on TK-10 renal, 2.53 µM. The GI50 in the assay on MDA-MB-435 is 4.56 µM; in the assay on NCI-H460 lung, 1.92 µM; with U251 CNS it was 3.07 µM; in the assay on SW-620 colon, 1.87 µM. Also, the TGI in the assay on SNB-19 CNS came to 22.3 µM; in the assay with ACHN renal, 9.96 µM; with HOP-92 NSCLC, 13.1 µM; in the assay with MALME-3M melanoma, 6.83 µM; in the assay on TK-10 renal, 7.55 µM; in the assay on MDA-MB-435, 20.6 µM. Besides, the TGI with NCI-H460 lung stood at 9.12 µM; in the assay on U251 CNS it was 22.5 µM; in the assay with SW-620 colon, 7.57 µM.
Regarding `CCN(CC)CCOc1nc2cc(OC)c(OC)cc2c2c1-c1ccc(OC)cc1C2=O`, the GI50 is 1.91 µM in the assay with MOLT-4 leukemia; 10.5 µM in the assay on SNB-19 CNS; 11.5 µM with ACHN renal; 15.7 µM in the assay with HOP-92 NSCLC; 21.1 µM in the assay on MALME-3M melanoma; 16.1 µM with TK-10 renal. Besides, the GI50 in the assay with MDA-MB-435 is 13.3 µM; in the assay on NCI-H460 lung, 1.22 µM; in the assay with U251 CNS it was 2.42 µM; in the assay on SW-620 colon, 1.21 µM. The TGI in the assay on MOLT-4 leukemia came out at 17.6 µM; with SNB-19 CNS, 23.7 µM; in the assay with ACHN renal it was 23.8 µM; in the assay on HOP-92 NSCLC it was 32.1 µM; in the assay with MALME-3M melanoma, 36.9 µM; with TK-10 renal, 29.6 µM. Besides, the TGI turned out to be 26 µM in the assay on MDA-MB-435, 2.72 µM in the assay on NCI-H460 lung, 18.7 µM in the assay on U251 CNS and 2.68 µM in the assay on SW-620 colon.
As to `O=C(Nc1ccc(-c2ccnc(Nc3ccc(N4CCOCC4)cc3)n2)cc1)C1CCCN1` (centres undefined), the GI50 in the assay with MOLT-4 leukemia is 3.04 µM; with SNB-19 CNS, 18 µM; in the assay with ACHN renal it was 4.27 µM; in the assay on HOP-92 NSCLC, 4.1 µM; in the assay with MALME-3M melanoma, 6.71 µM; with TK-10 renal, 9.35 µM. Besides, the GI50 in the assay with MDA-MB-435 is 6.39 µM; with NCI-H460 lung, 1.6 µM; in the assay on U251 CNS, 3.05 µM; with SW-620 colon, 6.14 µM. Also, the TGI in the assay with MOLT-4 leukemia was determined as 33.2 µM; in the assay with SNB-19 CNS it was 64.7 µM; with ACHN renal it was 25.2 µM; in the assay on HOP-92 NSCLC, 24.4 µM; in the assay with MALME-3M melanoma, 23.1 µM; in the assay on TK-10 renal it was 33.6 µM. Moreover, the TGI with MDA-MB-435 stood at 21.5 µM; with NCI-H460 lung, 16.4 µM; in the assay on U251 CNS, 21.6 µM; in the assay with SW-620 colon it was 25.1 µM.
